What was measured:
Assay in all cases: relative viability (nuclei count vs DMSO), 5 days (fraction); higher = more cells survive
[1] = compound: OCc1c[nH]c2ccccc12 [Indole-3-carbinol] + CS(=O)(=O)CCNCc1ccc(-c2ccc3ncnc(Nc4ccc(OCc5cccc(F)c5)c(Cl)c4)c3c2)o1 [Lapatinib] (partner 2 µM)
Method in brief: (§1)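 One day after seeding in 1536-well plates, lung cancer cell lines were dosed by pin tool. Dosing was either single-drug or a fixed anchor-drug dose plus five library-drug doses (not always all listed) in √10 steps. After 5 days, nuclei were stained in one fix-and-stain step and counted on 4× images, and relative viability is the nuclei count of treated wells over that of vehicle wells, given as the median of duplicate plates.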

[2] = compound: OCc1c[nH]c2ccccc12 [Indole-3-carbinol] + Cc1nc(NC(=O)N2CCC[C@H]2C(N)=O)sc1-c1ccnc(C(C)(C)C(F)(F)F)c1 [Alpelisib] (partner 2 µM)
Method in brief: as §1

[3] = compound: OCc1c[nH]c2ccccc12 [Indole-3-carbinol] + Cc1nc(Nc2ncc(C(=O)Nc3c(C)cccc3Cl)s2)cc(N2CCN(CCO)CC2)n1 [Dasatinib] (partner 0.075 µM)
Method in brief: as §1

[4] = compound: OCc1c[nH]c2ccccc12 [Indole-3-carbinol] + N=C(N)NC(=N)NCCc1ccccc1 [Phenformin] (partner 250 µM)
Method in brief: as §1

[5] = compound: OCc1c[nH]c2ccccc12 [Indole-3-carbinol] + NC(=O)Nc1cc(-c2cccc(F)c2)sc1C(=O)N[C@H]1CCCNC1 [AZD7762] (partner 0.2 µM)
Method in brief: as §1

| Cell Line | relative viability ([1]; first compound 0.253 µM) | relative viability ([1]; first compound 0.8 µM) | relative viability ([1]; first compound 2.53 µM) | relative viability ([1]; first compound 8 µM) | relative viability ([2]; first compound 0.253 µM) | relative viability ([2]; first compound 0.8 µM) | relative viability ([2]; first compound 2.53 µM) | relative viability ([2]; first compound 8 µM) | relative viability ([3]; first compound 0.253 µM) | relative viability ([3]; first compound 0.8 µM) | relative viability ([3]; first compound 2.53 µM) | relative viability ([3]; first compound 8 µM) | relative viability ([4]; first compound 0.253 µM) | relative viability ([4]; first compound 0.8 µM) | relative viability ([4]; first compound 2.53 µM) | relative viability ([4]; first compound 8 µM) | relative viability ([5]; first compound 0.253 µM) | relative viability ([5]; first compound 0.8 µM) | relative viability ([5]; first compound 2.53 µM) | relative viability ([5]; first compound 8 µM) |
| --- | --- | --- | --- | --- | --- | --- | --- | --- | --- | --- | --- | --- | --- | --- | --- | --- | --- | --- | --- | --- |
| LXF-289 | 0.919 | 0.946 | 0.881 | 0.841 | 1.03 | 1.1 | 1.09 | 0.99 | 0.256 | 0.229 | 0.258 | 0.203 | 0.527 | 0.553 | 0.488 | 0.513 | 1.25 | 1.1 | 1.13 | 1.03 |
| NCI-H23 | 1.09 | 1.1 | 1.06 | 0.9 | 0.618 | 0.723 | 0.637 | 0.629 | 0.793 | 1.01 | 0.936 | 0.675 | 0.773 | 0.815 | 0.831 | 0.77 | 0.315 | 0.263 | 0.256 | 0.294 |
| NCI-H322M | 0.601 | 0.537 | 0.575 | 0.549 | 0.774 | 0.82 | 0.86 | 0.8 | 0.239 | 0.245 | 0.237 | 0.255 | 0.685 | 0.764 | 0.746 | 0.761 | 0.607 | 0.596 | 0.514 | 0.613 |
| NCI-H358 | 0.519 | 0.422 | 0.42 | 0.423 | 0.773 | 0.777 | 0.992 | 0.959 | 0.146 | 0.204 | 0.172 | 0.189 | 0.383 | 0.33 | 0.345 | 0.325 | 0.56 | 0.489 | 0.591 | 0.507 |
| NCI-H460 | 1.09 | 0.993 | 0.983 | 0.9 | 0.458 | 0.457 | 0.563 | 0.517 | 0.451 | 0.59 | 0.499 | 0.444 | 0.535 | 0.482 | 0.53 | 0.498 | 0.652 | 0.602 | 0.679 | 0.645 |
| NCI-H596 | 1.05 | 0.779 | 0.936 | 0.985 | 0.387 | 0.48 | 0.417 | 0.47 | 0.649 | 0.665 | 0.659 | 0.595 | 0.633 | 0.735 | 0.77 | 0.723 | 1.06 | 1.07 | 1.11 | 1.06 |
| NCI-H647 | 1.24 | 0.904 | 0.87 | 0.969 | 1.22 | 1.15 | 1.24 | 1.09 | 0.18 |  | 0.222 | 0.167 | 0.637 |  | 0.569 | 0.446 | 0.604 | 0.293 | 0.463 | 0.551 |
| NCI-H650 | 0.333 | 0.817 | 0.98 | 0.842 | 1.06 | 1.18 | 1.05 | 0.953 | 0.472 | 0.488 | 0.444 | 0.447 | 0.47 | 0.491 | 0.484 | 0.416 | 1.01 | 1.21 | 0.967 | 1.04 |

From the supplement of paper PMC10307832
